Results: PMC8630742, “Citrullinated Epitopes Identified on Tumour MHC Class II by Peptide Elution Stimulate Both Regulatory and Th1 Responses and Require Careful Selection for Optimal Anti-Tumour Responses” (Frontiers in Immunology, 2021)

What was measured:
HLA-DP4 = HLA-DP4 competition binding assay against biotinylated Hepatitis B peptide (membrane preps, ELISA); design: species or system human; conditions: Figure 1D; for binding of the reference Hepatitis B peptide in presence of competitor (% maximal binding): equal quantity of non-biotinylated competitor and 10 µg biotinylated HepB 181-193, B16HHDII/cDP4 membrane preps, 4 hrs 37°C, streptavidin ELISA, anti-HLA-DP; for competition with the Hepatitis B reference peptide: equal quantity of competitor and 10 µg biotinylated HepB 181-193
Description: Binding of peptides to HLA-DP4 was assessed by extraction of membrane fractions from B16HHDII/cDP4 cells using Mem-PER™ Plus Membrane Protein Extraction Kit (Thermo Fisher-Scientific) according to manufacturer’s instructions. Membrane preps containing HLA-DP4 were incubated with 10 µg biotinylated peptide for 4hrs at 37°C. For competition assays, the membrane preps and 10 µg biotinylated Hepatitis B peptide were pre-incubated in the presence of specified concentrations of non-biotinylated peptides. Biotinylated peptide bound to HLA-DP4 was detected by capture onto streptavidin-coated ELISA plates and detected with anti-HLA-DP antibody clone B7/21 (Leinco Technologies Inc, USA) and anti-mouse IgG3 HRP antibody (Invitrogen, UK). Binding was quantified with TMB substrate and absorbance read at 405nm wavelength.
Figure 1 Citrullinated peptide combination vaccination provides poor tumour therapy in HLA-DP4 transgenic mice. HLA-DP4 transgenic mice were challenged with B16 cells constitutively expressing DP4 (A) or expressing DP4 under an IFNγ inducible promoter (B) and four days later mice were immunised with combination of 10ug each of seven eluted peptides and tumour growth and survival monitored. N=10/group. (C), HLA-DP4 transgenic mice were immunised with seven peptide combination vaccine at days 1, 8 and 15 and immune responses monitored at day 21 by IFNγ ELISpot assay. Results are representative of at least two independent experiments in which n=3. (D), Competition of equal quantity of non-biotinylated competitor peptides in the presence of 10µg biotinylated HepB 181-193 peptide. Results are representative of at least two independent experiments.

splenocytes (IFNγ) = assay: Ex vivo IFNγ ELISpot assay on splenocytes of immunised mice; type: in vivo, mouse; conditions: for IFNγ response to immunising peptide / IFNγ response at lower (10µg) immunising peptide dose: HLA-DP4 transgenic mice; for IFNγ response to immunising peptide: 25µg single peptide with CpG and MPLA days 1, 8, 15, splenocytes day 21, 10 µg/mL peptide, Figure 2A; for IFNγ response at lower (10µg) immunising peptide dose: 10µg single peptide, Figure 2F; for IFNγ response in presence of CD4 blocking antibody: anti-CD4 OKT4 20µg/ml, C; for avidity of the immune response: titrating quantities of peptide in IFNγ ELISpot, Figure 2E
Description: (§1) For all studies, the mice were randomised into different groups but not blinded to the investigators. Peptides were dissolved in PBS and then emulsified with CpG (ODN 1826, Invivogen) and MPLA (Invivogen) and delivered at 10 or 25µg dose unless stated otherwise. Adjuvants were used at 5µg/dose. Peptides in adjuvant were injected subcutaneously at the base of the tail. Mice were immunised on day 1, 8 and 15 and spleens were removed for analysis at day 21.
ELISpot assays were performed using murine IFNγ and IL-10 capture and detection reagents according to the manufacturer’s instructions (Mabtech). In brief, the specific cytokine antibodies were coated onto wells of 96-well Immobilin-P plates. […] (RPMI medium 1640 (GIBCO/BRL) supplemented with 10% FCS (Sigma), 2mM L-glutamine (Sigma) and sodium bicarbonate buffered with additional 20mM HEPES (Sigma) and 50 µM 2-mercaptoethanol (2ME, Thermofisher). 5x10^5/well splenocytes were added in quadruplicate wells, plates were incubated for 40 hours at 37 °C/5% CO2. Cells with culture media only were added as negative control and cells cultured with 5 µg/ml Lipopolysaccharide (LPS, Sigma) were used as a positive control. Where relevant anti-CD4 (human clone OKT4, BioXcell) or CD8 (mouse clone 2.43, BioXcell) blocking antibodies were added to splenocytes at 20µg/ml for 15 minutes prior to stimulation with peptide. After incubation, captured cytokine was detected by biotinylated cytokine specific antibody and developed using streptavidin alkaline phosphatase and chromogenic substrate. Spots were analysed and counted using an automated plate reader (Cellular Technologies Ltd). Results were represented as spots/million splenocytes.

[1] = test system: B16/HHDII/cDP4 (B16cDP4) cells; assay: Tumour therapy, B16cDP4 melanoma in HLA-DP4 transgenic mice; type: in vivo, mouse; conditions: for tumour free survival: 25ug individual peptide with CpG/MPLA, n=10/group, Figure 4A; for overall survival at day 50 / tumour growth: 25ug individual peptide, compared to unimmunised control, Figure 4
Description: as §1
For the tumour therapy studies, HHDII/DP4 transgenic mice were challenged by subcutaneous injection with 5 × 105 B16/HHDII/cDP4 (B16cDP4) cells or 1 × 105 B16/HHDII/iDP4 (B16iDP4) cells subcutaneously on the flank at day 1 and then immunised on days 4, 11 and 18. Tumour growth was monitored at 3–4 days intervals and mice were humanely euthanised once tumour approached 15mm diameter.

splenocytes (IL-10) = assay: Ex vivo IL-10 ELISpot assay on splenocytes of immunised mice; type: in vivo, mouse; conditions: for IL-10 response to immunising peptide: HLA-DP4 transgenic mice, 25ug single peptide with CpG/MPLA days 1, 8, 15, day 21, Figure 3A
Description: as §1
ELISpot assays were performed using murine IFNγ and IL-10 capture and detection reagents according to the manufacturer’s instructions (Mabtech). In brief, the specific cytokine antibodies were coated onto wells of 96-well Immobilin-P plates. Synthetic peptides (Genescript) were used at 10 µg/mL and diluted in culture media (RPMI medium 1640 (GIBCO/BRL) supplemented with 10% FCS (Sigma), 2mM L-glutamine (Sigma) and sodium bicarbonate buffered with additional 20mM HEPES (Sigma) and 50 µM 2-mercaptoethanol (2ME, Thermofisher). 5x10^5/well splenocytes were added in quadruplicate wells, plates were incubated for 40 hours at 37 °C/5% CO2. Cells with culture media only were added as negative control and cells cultured with 5 µg/ml Lipopolysaccharide (LPS, Sigma) were used as a positive control. Where relevant anti-CD4 (human clone OKT4, BioXcell) or CD8 (mouse clone 2.43, BioXcell) blocking antibodies were added to splenocytes at 20µg/ml for 15 minutes prior to stimulation with peptide. After incubation, captured cytokine was detected by biotinylated cytokine specific antibody and developed using streptavidin alkaline phosphatase and chromogenic substrate. Spots were analysed and counted using an automated plate reader (Cellular Technologies Ltd). Results were represented as spots/million splenocytes.

[2] = mice immunised with 25ug peptide, Figure 2B
[3] = mice immunised with 25ug peptide

Row | Substance | binding of the reference Hepatitis B peptide in presence of competitor (% maximal binding) (HLA-DP4) | tumour free survival [1] [%] | overall survival at day 50 / tumour growth [1] | IFNγ response to immunising peptide (splenocytes (IFNγ)) | IL-10 response to immunising peptide (splenocytes (IL-10)) | further results
1 | KRDVTLEAS-cit-ESSKP-cit-AVLKP-cit- [citSeThrePho, Synthetic citrullinated peptide Serine/threonine-protein phosphatase 2A 55 kDa regulatory subunit B gamma isoform 370-391] | 30-35% | – | – | – | – | –
2 | MDEIDAIGG-cit-RFSEGTSADREIQ [cit26S-10B, Synthetic citrullinated peptide 26S protease regulatory subunit 10B 246-268] | 30-35% | – | – | – | – | –
3 | collagen [reference compound] | – | – | – | – | – | competition with the Hepatitis B reference peptide (HLA-DP4): no competition
4 | EPKSSCYNTHEKRIYQSNMLNRYLI [GRI, synthetic native peptide Glutamate receptor ionotropic 316-340] | – | – | – | – | – | IFNγ response to unmodified peptide in mice immunised with the citrullinated peptide (splenocytes (IFNγ); mice immunised with 25ug citGRI, Figure 2B): cross reactivity
5 | ML-cit-CASGAEL-cit-QPPRDVPPDAR [cit5T4, Synthetic citrullinated peptide Trophoblast glycoprotein-like protein 40-61] | 40-50% | – | – | – | – | –
6 | LEIY-cit-YTSFVPFTIPHSTTR [citCp450, Synthetic citrullinated peptide Cytochrome P450 1A2 373-392] | 40-50% | 20 | tumour growth similar to control | absence of any detectable IFNγ response | strong IL-10 response | IL-10 response in HHDII/DR1 mice (splenocytes (IL-10); HHDII/DR1 compared to HHDII/DP4 mice, Figure 3C): fail to be stimulated; IL-10 response in presence of CD4 blocking antibody (splenocytes (IL-10); mice immunised with 25ug citCp450, did not reach significance, Figure 3B): reduction in response; IL-10 response when delivered as part of the combination vaccine (splenocytes (IL-10); seven peptide combination vaccine, Figure 3D): stimulated IL-10 responses
7 | VFDWIRKERNQYGEVRV-cit-FNTYFFR [citMMP21, Synthetic citrullinated peptide Matrix metalloproteinase-21 337-360] | 40-50% | 90 | strong overall survival | strong IFNγ responses | some IL-10-producing cells | IFNγ response in HHDII/DR1 transgenic mice (splenocytes (IFNγ); HHDII/DR1 mice, Figure 2D): No responses; IFNγ response at lower (10µg) immunising peptide dose (splenocytes (IFNγ)): only the response to citMMP21 was observed; IFNγ response in presence of CD4 blocking antibody (splenocytes (IFNγ); [2]): reduced; IFNγ response in presence of CD8 blocking antibody (splenocytes (IFNγ); anti-CD8 2.43 20µg/ml, mice immunised with 25ug peptide, Figure 2C): No significant blocking; avidity of the immune response (splenocytes (IFNγ); [3]): 10^-8 M
8 | EPKSSCYNTHEK-cit-IYQSNMLN-cit-YLI [citGRI, Synthetic citrullinated peptide Glutamate receptor ionotropic 316-340] | 40-50% | 70 | significant overall survival | strong IFNγ responses | some IL-10-producing cells | IFNγ response at lower (10µg) immunising peptide dose (splenocytes (IFNγ)): failed to stimulate an immune response; IFNγ response in presence of CD4 blocking antibody (splenocytes (IFNγ); [2]): efficiently blocked; avidity of the immune response (splenocytes (IFNγ); [3]): 10^-7 M
9 | NGQT-cit-EHALLAYTLGVKQLIVGVNK [citELO, Synthetic citrullinated peptide Elongation factor 1-alpha 1 130-154] | 40-50% | – | – | – | – | –
10 | fibrinogen [reference compound] | – | – | – | – | – | competition with the Hepatitis B reference peptide (HLA-DP4): no competition
